Measured values as given in US8426408B2, “Pyrimidine inhibitors of kinases” (AbbVie Inc., priority 2009, dated 2013).

Columns and labels:
NCI-H1299 cells = assay: Induction of polyploidy in H1299; type: cell-based, Human; details: Homo sapiens; NCI-H1299, 48 hours; read-out: EC15 (concentration of inhibitor necessary to induce polyploidy in 15% of cells)
How it was run: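 Potency is given as EC15, the inhibitor concentration giving 15% polyploid cells, from log dose-response least-squares analysis. Polyploid cells (nuclear area >750 μ^2, ≥4N) were counted by Hoechst high-content microscopy. H1299 cells had been exposed for 48 h at 37 C in duplicate, then fixed in 3% formalin.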

Aurora B = target: T1, Aurora B (Homo sapiens, UniProt Q96GD4); assay: Aurora B enzyme inhibition (time-resolved fluorescence, histone H3 peptide); type: biochemical; details: 1 mM ATP
T1 construct: Active Aurora B enzyme (recombinant residues 1-344)
How it was run: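 IC50s came from an exponential fit of inhibition against inhibitor concentration, with phosphorylation read as the 665/615 nm time-resolved fluorescence ratio after EDTA stop using Eu-anti-phospho-H3 and SA-APC. The 1 h reaction used Aurora B 1-344 plus GST-INCENP, biotin-histone H3 1-21 peptide and 1 mM ATP in pH 7.4 HEPES buffer.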

KDR = KDR (Homo sapiens, UniProt P35968); assay: KDR HTRF in vitro kinase assay; type: biochemical; parameters: purified enzyme (His6-KDR 789-1354, MW 63 kD); His6 (N); details: 1 mM ATP; read-out: KDR enzyme inhibition data (Ki)
How it was run: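 His6-KDR 789-1354 (7 ng/well) with 0.5 μM biotinylated peptide substrate and 1 mM ATP in HEPES pH 7.1, MgCl2/MnCl2, 60 min at room temperature. EDTA-quenched, detected by streptavidin-XL-665 plus Eu-kryptate anti-phosphotyrosine HTRF after 3 h; IC50 from 620/665 nm ratio.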

KDR, sequence (P35968 789-1354): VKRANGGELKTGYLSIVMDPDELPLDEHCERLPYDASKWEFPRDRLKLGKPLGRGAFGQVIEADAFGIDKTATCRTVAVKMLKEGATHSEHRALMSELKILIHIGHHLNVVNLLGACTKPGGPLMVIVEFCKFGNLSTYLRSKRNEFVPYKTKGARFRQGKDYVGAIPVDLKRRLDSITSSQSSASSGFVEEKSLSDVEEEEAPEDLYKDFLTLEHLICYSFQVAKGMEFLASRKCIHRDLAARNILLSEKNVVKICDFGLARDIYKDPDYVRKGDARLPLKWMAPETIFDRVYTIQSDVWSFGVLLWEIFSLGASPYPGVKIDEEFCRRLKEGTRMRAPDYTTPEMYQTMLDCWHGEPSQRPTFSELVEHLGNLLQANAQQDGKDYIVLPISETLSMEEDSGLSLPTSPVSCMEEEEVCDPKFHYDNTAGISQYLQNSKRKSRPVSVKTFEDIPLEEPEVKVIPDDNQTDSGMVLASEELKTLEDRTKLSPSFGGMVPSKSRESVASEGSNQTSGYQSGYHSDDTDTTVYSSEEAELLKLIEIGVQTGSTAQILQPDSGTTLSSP
T1 sequence (Q96GD4 whole entry, the tested form may be a part): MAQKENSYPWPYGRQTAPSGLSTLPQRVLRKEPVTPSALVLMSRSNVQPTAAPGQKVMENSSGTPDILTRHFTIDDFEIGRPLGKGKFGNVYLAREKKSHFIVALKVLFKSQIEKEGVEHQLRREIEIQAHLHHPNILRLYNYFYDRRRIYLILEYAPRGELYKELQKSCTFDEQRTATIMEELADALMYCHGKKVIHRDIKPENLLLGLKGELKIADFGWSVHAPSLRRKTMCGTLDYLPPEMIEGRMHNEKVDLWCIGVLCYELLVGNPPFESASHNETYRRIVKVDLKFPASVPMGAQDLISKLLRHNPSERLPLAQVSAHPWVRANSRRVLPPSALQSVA
T1 sequence (Q9NQS7 826-918 partner limits assumed): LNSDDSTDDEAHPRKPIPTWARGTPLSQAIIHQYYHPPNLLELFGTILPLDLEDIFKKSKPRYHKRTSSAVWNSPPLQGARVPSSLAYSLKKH

Compound	EC15 (NCI-H1299 cells) [nM]	Ki (Aurora B) [nM]	Ki (KDR) [nM]
CN1CCN(CCn2cc(Nc3ncc(Br)c(N[C@H]4[C@@H](C(N)=O)[C@@H]5C=C[C@H]4C5)n3)cn2)CC1 [Example 94, (1S,2S,3R,4R)-3-{[5-bromo-2-({1-[2-(4-methylpiperazin-1-yl)ethyl]-1H-pyrazol-4-yl}amino)pyrimidin-4-yl]amino}bicyclo[2.2.1]hept-5-ene-2-carboxamide]	< 100	< 100	< 100
COCCn1cc(Nc2ncc(Cl)c(N[C@H]3[C@@H](C(N)=O)[C@@H]4C=C[C@H]3C4)n2)cn1 [Example 96, (1S,2S,3R,4R)-3-[(5-chloro-2-{[1-(2-methoxyethyl)-1H-pyrazol-4-yl]amino}pyrimidin-4-yl)amino]bicyclo[2.2.1]hept-5-ene-2-carboxamide]	100 to 1000	< 100	< 100
NC(=O)[C@@H]1[C@H](Nc2nc(Nc3cnn(C4CCNCC4)c3)ncc2Br)[C@H]2C=C[C@@H]1C2 [Example 95, (1S,2S,3R,4R)-3-[(5-bromo-2-{[1-(piperidin-4-yl)-1H-pyrazol-4-yl]amino}pyrimidin-4-yl)amino]bicyclo[2.2.1]hept-5-ene-2-carboxamide]	100 to 1000	< 100	< 100
